These are literature values, as cited in publication PMC5862601 (Oncotarget, 2018).

Structures are written as SMILES. Like-named read-outs stand apart in the source and are kept apart here.

For one series, the system named is HEK-A2B cells, A2B ≥ A2A. The note with it: cited from earlier work.
In series [1] the test system is HMEC-1 human microvascular endothelial cell line. On the set-up: method as in Feoktistov I, et al. Circ Res. 2002; 90:531-538. [21]. The note with it: ref Feoktistov I, et al. Circ Res. 2002, 90:531-538. [21]; cited from earlier work.
The test system of the next series is Jurkat-T cells. Conditions: cited from earlier work; for EC50: Jurkat-T, ref Van der Ploeg et al. Naunyn Schmiedeberg’s Arch Pharmacol. 1996, 353: 250-260. [22].
Series [2] has as its system Human prostatic carcinoma cells PC-3. On the set-up: method as in Wei Q, et al. Purinergic Signal. 2013; 9: 271-280. [23]. The note with it: ref Wei Q, et al. Purinergic Signal. 2013, 9: 271-280. [23]; cited from earlier work.
The test system of series [3] is Ovarian cancer cell line OVCAR-3. On the set-up: method as in Hajiahmadi S, et al. Res Pharm Sci. 2015; 10: 43-51. [24]. Conditions: ref Hajiahmadi S, et al. Res Pharm Sci. 2015, 10: 43-51. [24]; cited from earlier work.
Series [4] relates to Ovarian cancer cell line Caov-4. On the set-up: method as in Hajiahmadi S, et al. Res Pharm Sci. 2015; 10: 43-51. [24]. Conditions: ref Hajiahmadi S, et al. Res Pharm Sci. 2015, 10: 43-51. [24]; cited from earlier work.
In series [5] the test system is Ovarian cancer cell line SKOV-3. On the set-up: method as in Hajiahmadi S, et al. Res Pharm Sci. 2015; 10: 43-51. [24]. The note with it: ref Hajiahmadi S, et al. Res Pharm Sci. 2015, 10: 43-51. [24]; cited from earlier work.
Series [6] concerns Breast cancer cell line MDA-MB-231. On the set-up: method as in Panjehpour M, et al. Br J Pharmacol. 2005; 145: 211-218. [25]. Conditions: ref Panjehpour M, et al. Br J Pharmacol. 2005, 145: 211-218. [25]; cited from earlier work.
For series [7], the system named is HUVEC Human Umbilical Vein Endothelial Cells. On the set-up: method as in Feoktistov I, et al. Circ Res. 2002; 90: 531-538. [21]. The note with it: HUVEC (A2A > A2B); ref Feoktistov I, et al. Circ Res. 2002; 90: 531-538. [21]; cited from earlier work.
Series [8] concerns PC12 (rat) phaeochromocytoma cells. The note with it: cited from earlier work.
In series [9] the test system is prostate cancer cell lines (A2B > A2A). The note with it: three prostate cancer cell lines (A2B > A2A); ref [13]; cited from earlier work.
The subject of series [10] is human ovarian cancer cell lines (A2B > A2A). Conditions: three human ovarian cancer cell lines (A2B > A2A); ref [12]; cited from earlier work.
The test system of series [11] is isolated perfused mouse heart. Conditions: A2B knockout vs wildtype mice, ref [51]; cited from earlier work.
The next series deals with A2B receptor (CHO-A2B). Conditions: ref De Filippo E, et al. Purinergic Signal. 2016;12: 313-329. [11]; cited from earlier work.
The subject of series [12] is HEK293 (native) cells, A2B ≥ A2A. The note with it: cited from earlier work.
Series [13] relates to T24 human bladder carcinoma cells. Conditions: cited from earlier work; for EC50: T24 human bladder carcinoma.
[14] abbreviates: ref Gao Z, et al. Biochem Pharmacol. 2014, 90: 297-306. [17].
Setting [15] is: ref van der Ploeg et al. Naunyn Schmiedeberg’s Arch Pharmacol. 1996, 353: 250-260. [22], read-out: EC50.

What is called EC50 is the concentration that produces a half-maximal response. As to `CCNC(=O)[C@H]1O[C@@H](n2cnc3c(N)ncnc32)[C@H](O)[C@@H]1O` [NECA, 5′-N-ethylcarboxamidoadenosine], the EC50 in the series on HEK-A2B cells, A2B ≥ A2A (setting [14]) was 0.021 µM; in the series on HEK-A2B cells, A2B ≥ A2A (ref Hinz S, et al. J Pharmacol Exp Ther. 2014, 3: 427-436. [15]), 0.2 µM; with HEK-A2B cells, A2B ≥ A2A (ref Linden J, et al. Mol Pharmacol. 1999, 56: 705-713. [19]) it was 0.0286 µM; in series [1], 14 µM; in the series on Jurkat-T cells it was 5.8 µM; in series [2], 0.469 µM. Also, the EC50 in series [3] was 6.6 µM; in series [4], 9.12 µM; in series [5], 18 µM; in series [6], 1.13 µM; in [7] it was 0.95 µM; in series [8] (high-affinity component, ref Hide I, et al. Mol Pharmacol. 1992, 41: 352-359. [26], read-out: EC50, biphasic: KH), 0.066 µM. For the same molecule, the EC50 in series [8] (low-affinity component, ref Hide I, et al. Mol Pharmacol. 1992, 41: 352-359. [26], read-out: EC50, biphasic: KL) was 7.5 µM; in series [8] (setting [15]), 0.2 µM. The “induction of cAMP accumulation” value in series [9] and in series [10] was “concentration-dependently induced cAMP accumulation” each time. Besides, in series [11], the “increase in coronary flow” value is on record as “increased coronary flow in A2B knockout (KO) mice to a significantly higher degree than in wildtype (WT) mice”.

On to `CCNC(=O)[C@H]1O[C@@H](n2cnc3c(N)nc(NCCc4ccc(CCC(=O)O)cc4)nc32)[C@H](O)[C@@H]1O` [CGS-21680, (2-p-[2-carboxyethyl]phenethylamino)-5´-N-ethylcarboxamidoadenosine], for which the EC50 on A2B receptor (CHO-A2B) was 31.1 µM; in series [12] (ref Cooper J, et al. Br J Pharmacol. 1997, 122: 546-550. [18]), > 30 µM; in [12] (setting [14]) it was > 10 µM; in series [13] (setting [14]) it was > 10 µM; in series [13] (ref Phelps PT, et al. Eur J Pharmacol. 2006, 536: 28-37. [20]) it was > 10 µM; in [1] it was > 100 µM. Moreover, the half-maximal effective concentration (EC50) in the series with Jurkat-T cells was > 100 µM; in series [2], > 10 µM; in [3], > 100 µM; in series [4], > 100 µM; in series [5], > 100 µM; in series [6] it was > 10 µM. Also, the concentration for a half-maximal effect (EC50) in [7] was 0.469 µM; in series [8] (ref Hide I, et al. Mol Pharmacol. 1992, 41: 352-359. [26], read-out: EC50), 0.064 µM; in series [8] (setting [15]), 0.09 µM. The “induction of cAMP accumulation” value in [13] (T24 (A2B > A2A), ref [45]) was “inactive”. Further, the “activity in cAMP assays” value in the series with Jurkat-T cells (Jurkat-T cells (A2B ≥ A2A), ref [47]) was “nearly inactive”. In addition, in [11], the “increase in coronary flow” value is on record as “increased coronary flow in A2B knockout (KO) mice to a significantly higher degree than in wildtype (WT) mice”.
